14 compounds from patent publication US20240409585A1, “MACROCYCLIC IMMUNOMODULATORS” (priority 2021, published 2024) can be followed below.

Bridge positions count the residues as written; N and C are the ends. Square brackets hold non-standard residues; d marks the D form. Peptide text beside a SMILES is read from it. * marks the point of attachment. ξ: configuration not given here. Phe(3,4-Cl2) = N[C@@H](Cc1ccc(Cl)c(Cl)c1)C(=O)O; Phe(4-COOH) = N[C@@H](Cc1ccc(C(=O)O)cc1)C(=O)O; Phe(4-CH2NH2) = NCc1ccc(C[C@H](N)C(=O)O)cc1; Bip = N[C@@H](Cc1ccc(-c2ccccc2)cc1)C(=O)O; Ala(2-furyl) = N[C@@H](Cc1ccco1)C(=O)O; Phe(3-Me) = Cc1cccc(C[C@H](N)C(=O)O)c1; Val(3-OH) = CC(C)(O)[C@H](N)C(=O)O; mTyr = N[C@@H](Cc1cccc(O)c1)C(=O)O; 3Pal = N[C@@H](Cc1cccnc1)C(=O)O; 4Pal = N[C@@H](Cc1ccncc1)C(=O)O; Cha = N[C@@H](CC1CCCCC1)C(=O)O; Ile(3ξ) = CCC(C)[C@H](N)C(=O)O; AllylGly = C=CC[C@H](N)C(=O)O; Thr(3ξ) = CC(O)[C@H](N)C(=O)O; Carboxymethyl = O=C(O)C*; NMeA = CN[C@@H](C)C(=O)O; Pra = C#CC[C@H](N)C(=O)O; Dab = NCC[C@H](N)C(=O)O; ξC = NC(CS)C(=O)O

For this test, the target named is T1, PE-labeled human PD-L1-Ig binding to Jurkat cell line over-expressing human PD-1 (Jurkat-PD-1) (Homo sapiens, UniProt Q15116).
T1 construct: expressed in transfected cells; host or cells: Jurkat
T1 sequence (Q15116 25-288): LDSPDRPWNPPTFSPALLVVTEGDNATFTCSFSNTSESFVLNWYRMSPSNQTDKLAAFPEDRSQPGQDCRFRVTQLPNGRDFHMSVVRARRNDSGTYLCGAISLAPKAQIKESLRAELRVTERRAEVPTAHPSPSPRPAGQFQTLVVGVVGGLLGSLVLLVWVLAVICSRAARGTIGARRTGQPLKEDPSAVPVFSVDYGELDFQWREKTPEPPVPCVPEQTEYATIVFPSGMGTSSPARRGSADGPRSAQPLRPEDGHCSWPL
Briefly: Jurkat-PD-1 Cell Binding High-Content Screening Assay (CBA): Method 1. The conditions noted are these: Jurkat-hPD-1 cells, PE-labeled PD-L1-Ig 20 nM final; read-out: Jurkat HPDL1 PD1 IC50 (uM) (Method 1).
Regarding `C=CC[C@@H]1NC(=O)[C@H](CC(C)C)NC(=O)[C@H](CC(N)=O)NC(=O)[C@@H](CC(C)C)NC(=O)[C@H](C)N(C)C(=O)[C@H](C(C)C)NC(=O)[C@H](Cc2ccc(-c3ccccc3)cc2)NC(=O)[C@H](CC=C)NC(=O)[C@H](Cc2cccc(C)c2)NC(=O)[C@H](CC(=O)O)NC(=O)[C@H](Cc2ccncc2)NC(=O)[C@H](Cc2ccc(OCC(=O)O)cc2)NC(=O)CSCC(C(=O)NCC(N)=O)NC(=O)[C@H](CO)NC1=O` (stereo partly drawn) [Compound 1882] ({CH2CO}-Y(Carboxymethyl)[4Pal]D[Phe(3-Me)][AllylGly][Bip]V[NMeA][dL]NL[AllylGly]S[ξC]G-NH2; thioether N-14), the IC50 came to 0.03 µM.

Take `CC[C@H](C)[C@@H]1NC(=O)[C@H](Cc2ccc(-c3ccccc3)cc2)NC(=O)[C@H](C(C)C)NC(=O)[C@H](Cc2cccc(C)c2)NC(=O)[C@H](CC(=O)O)NC(=O)[C@H](Cc2ccc(O)cc2)NC(=O)[C@H](CC(N)=O)NC(=O)CSC[C@@H](C(=O)N[C@H](C)C(N)=O)NC(=O)[C@H](CCC(=O)O)NC(=O)[C@H](C(C)(C)O)NC(=O)[C@H](CC2CCCCC2)NC(=O)[C@H](CCN)NC(=O)[C@@H](CC(C)C)NC(=O)[C@H](C)N(C)C1=O` [Compound 1696] ({CH2CO}-NYD[Phe(3-Me)]V[Bip]I[NMeA][dL][Dab][Cha][Val(3-OH)]EC[dA]-NH2; thioether N-14): the IC50 is 0.01 µM. Next, `Cc1cccc(C[C@@H]2NC(=O)[C@H](CC(=O)O)NC(=O)[C@H](Cc3ccc(C(=O)O)cc3)NC(=O)[C@H](C(C)O)NC(=O)CSC[C@@H](C(=O)N[C@@H](CCN)C(N)=O)NC(=O)[C@H](CO)NC(=O)[C@H](C(C)(C)O)NC(=O)[C@H](CC3CCCCC3)NC(=O)[C@H](CCN)NC(=O)[C@@H](CC(C)C)NC(=O)[C@H](C)N(C)C(=O)[C@H](Cc3ccc(OCC(=O)O)cc3)NC(=O)[C@H](Cc3ccc(-c4ccccc4)cc3)NC(=O)[C@H](Cc3ccc(OCC(=O)O)cc3)NC2=O)c1` (stereo partly drawn) [Compound 2151] ({CH2CO}-[Thr(3ξ)][Phe(4-COOH)]D[Phe(3-Me)]Y(Carboxymethyl)[Bip]Y(Carboxymethyl)[NMeA][dL][Dab][Cha][Val(3-OH)]SC[Dab]-NH2; thioether N-14): 0.02 µM; `Cc1cccc(C[C@@H]2NC(=O)[C@H](CC(=O)O)NC(=O)[C@H](Cc3ccc(OCC(=O)O)cc3)NC(=O)[C@H](Cc3ccncc3)NC(=O)CSC[C@@H](C(=O)N[C@@H](CCN)C(N)=O)NC(=O)[C@H](CCC(=O)O)NC(=O)[C@H](C(C)(C)O)NC(=O)[C@H](CC3CCCCC3)NC(=O)[C@H](CCN)NC(=O)[C@@H](CC(C)C)NC(=O)[C@H](C)N(C)C(=O)[C@H](Cc3ccc(OCC(=O)O)cc3)NC(=O)[C@H](Cc3ccc(-c4ccccc4)cc3)NC(=O)[C@H](Cc3ccc(C(=O)O)cc3)NC2=O)c1` [Compound 2189] ({CH2CO}-[4Pal]Y(Carboxymethyl)D[Phe(3-Me)][Phe(4-COOH)][Bip]Y(Carboxymethyl)[NMeA][dL][Dab][Cha][Val(3-OH)]EC[Dab]-NH2; thioether N-14): 0.03 µM. The figure for `CC(C)C[C@@H]1NC(=O)[C@H](CCCNC(=N)N)NC(=O)[C@@H](CC(C)C)NC(=O)[C@H](C)N(C)C(=O)[C@H](CCCNC(=N)N)NC(=O)[C@H](Cc2ccc(-c3ccccc3)cc2)NC(=O)[C@H](C(C)C)NC(=O)[C@H](Cc2ccc(Cl)c(Cl)c2)NC(=O)[C@H](CC(=O)O)NC(=O)[C@H](Cc2ccc(O)cc2)NC(=O)[C@H](CC(N)=O)NC(=O)CSC[C@@H](C(=O)N[C@@H](C)C(N)=O)NC(=O)[C@H]([C@@H](C)O)NC(=O)[C@H](C(C)C)NC1=O` [Compound 1195] ({CH2CO}-NYD[Phe(3,4-Cl2)]V[Bip]R[NMeA][dL]RLVTCA-NH2; thioether N-14) is 0.32 µM; for `CC(C)C[C@@H]1NC(=O)[C@H](Cc2c[nH]c3ccccc23)NC(=O)[C@H](CC(=O)O)NC(=O)[C@H](Cc2ccco2)NC(=O)[C@H](Cc2ccccc2)NC(=O)CSC[C@@H](C(=O)N[C@@H](C)C(N)=O)NC(=O)[C@H](CO)NC(=O)[C@H](C(C)C)NC(=O)[C@H](CC(C)C)NC(=O)[C@H](CC(N)=O)NC(=O)[C@@H](C)NC(=O)[C@H](C)N(C)C(=O)[C@H](C(C)C)NC(=O)[C@H](Cc2ccc(-c3ccccc3)cc2)NC1=O` [Compound 1734] ({CH2CO}-F[Ala(2-furyl)]DWL[Bip]V[NMeA][dA]NLVSCA-NH2; thioether N-14) it is 0.01 µM; for `CCC(C)[C@@H]1NC(=O)[C@H](Cc2ccc(-c3ccccc3)cc2)NC(=O)[C@H](C(C)C)NC(=O)[C@H](Cc2c[nH]c3ccccc23)NC(=O)[C@H](CC(=O)O)NC(=O)[C@H](Cc2ccc(O)cc2)NC(=O)[C@H](CC(N)=O)NC(=O)CSC[C@@H](C(=O)N[C@@H](CCCCN)C(N)=O)NC(=O)[C@H](C(C)O)NC(=O)[C@H](C(C)C)NC(=O)[C@H](CC2CCCCC2)NC(=O)[C@H](CCN)NC(=O)[C@@H](CC(C)C)NC(=O)[C@H](C)N(C)C1=O` (stereo partly drawn) [Compound 2079] ({CH2CO}-NYDWV[Bip][Ile(3ξ)][NMeA][dL][Dab][Cha]V[Thr(3ξ)]CK-NH2; thioether N-14) it is 0.02 µM.

Regarding `CC(C)C[C@@H]1NC(=O)[C@H](CCN)NC(=O)[C@@H](CC(C)C)NC(=O)[C@H](C)N(C)C(=O)[C@H](CCCNC(=N)N)NC(=O)[C@H](Cc2ccc(-c3ccccc3)cc2)NC(=O)[C@H](C(C)C)NC(=O)[C@H](Cc2c[nH]c3ccccc23)NC(=O)[C@H](CC(=O)O)NC(=O)[C@H](Cc2cccc(O)c2)NC(=O)[C@H](CC(N)=O)NC(=O)CSC[C@@H](C(=O)N[C@@H](C)C(N)=O)NC(=O)[C@H]([C@@H](C)O)NC(=O)[C@H](C(C)C)NC1=O` [Compound 1355] ({CH2CO}-N[mTyr]DWV[Bip]R[NMeA][dL][Dab]LVTCA-NH2; thioether N-14), the IC50 stood at 0.13 µM.

In the case of `C#CC[C@H](NC(=O)[C@@H](C)NC(=O)[C@@H]1CSCC(=O)N[C@@H]([C@@H](C)O)C(=O)N[C@@H](Cc2ccc(C(=O)O)cc2)C(=O)N[C@@H](CC(=O)O)C(=O)N[C@@H](Cc2cccc(C)c2)C(=O)N[C@@H](Cc2ccc(C(=O)O)cc2)C(=O)N[C@@H](Cc2ccc(-c3ccccc3)cc2)C(=O)N[C@@H](Cc2ccc(OCC(=O)O)cc2)C(=O)N(C)[C@@H](C)C(=O)N[C@H](CC(C)C)C(=O)N[C@@H](CCN)C(=O)N[C@@H](CC2CCCCC2)C(=O)N[C@@H](C(C)(C)O)C(=O)N[C@@H](CCC(=O)O)C(=O)N1)C(N)=O` [Compound 1947] ({CH2CO}-T[Phe(4-COOH)]D[Phe(3-Me)][Phe(4-COOH)][Bip]Y(Carboxymethyl)[NMeA][dL][Dab][Cha][Val(3-OH)]EC[dA][Pra]-NH2; thioether N-14), the IC50 worked out at 0.43 µM. Turning to `CC(C)C[C@H]1NC(=O)[C@H](C)N(C)C(=O)[C@H](C(C)C)NC(=O)[C@H](Cc2ccc(-c3ccccc3)cc2)NC(=O)[C@H](C(C)C)NC(=O)[C@H](Cc2c[nH]c3ccccc23)NC(=O)[C@H](CC(=O)O)NC(=O)[C@H](Cc2ccncc2)NC(=O)[C@H](Cc2ccc(CN)cc2)NC(=O)CSC[C@@H](C(N)=O)NC(=O)[C@H](CO)NC(=O)[C@H](C(C)C)NC(=O)[C@H](CC2CCCCC2)NC(=O)[C@H](CC(N)=O)NC1=O` [Compound 2242] ({CH2CO}-[Phe(4-CH2NH2)][4Pal]DWV[Bip]V[NMeA][dL]N[Cha]VSC-NH2; thioether N-14), the IC50 came to 0.03 µM. With `CCC(C)[C@@H]1NC(=O)[C@H](Cc2ccc(-c3ccccc3)cc2)NC(=O)[C@H](C(C)C)NC(=O)[C@H](Cc2c[nH]c3ccccc23)NC(=O)[C@H](CC(N)=O)NC(=O)[C@H](Cc2ccc(O)cc2)NC(=O)[C@H](CC(N)=O)NC(=O)CSCC(C(=O)NCC(N)=O)NC(=O)[C@H](C(C)O)NC(=O)[C@H](C(C)C)NC(=O)[C@H](CC2CCCCC2)NC(=O)[C@H](CC(N)=O)NC(=O)[C@@H](CC(C)C)NC(=O)[C@H](C)N(C)C1=O` (stereo partly drawn) [Compound 2066] ({CH2CO}-NYNWV[Bip][Ile(3ξ)][NMeA][dL]N[Cha]V[Thr(3ξ)][ξC]G-NH2; thioether N-14), the IC50 turned out to be 0.35 µM. Regarding `CC(C)C[C@@H]1NC(=O)[C@H](CCCCN)NC(=O)[C@@H](CC(C)C)NC(=O)[C@H](C)N(C)C(=O)[C@H](C(C)C)NC(=O)[C@H](Cc2ccc(-c3ccccc3)cc2)NC(=O)[C@H](C(C)C)NC(=O)[C@H](Cc2c[nH]c3ccccc23)NC(=O)[C@H](CC(=O)O)NC(=O)[C@H](Cc2ccc(O)cc2)NC(=O)[C@H](CC(N)=O)NC(=O)CSC[C@@H](C(=O)N[C@@H](C)C(N)=O)NC(=O)[C@H]([C@@H](C)O)NC(=O)[C@H](C(C)C)NC1=O` [Compound 1299] ({CH2CO}-NYDWV[Bip]V[NMeA][dL]KLVTCA-NH2; thioether N-14), the IC50 turned out to be 0.02 µM. In the case of `CC[C@H](C)[C@@H]1NC(=O)[C@H](Cc2ccc(-c3ccccc3)cc2)NC(=O)[C@H](C(C)C)NC(=O)[C@H](Cc2c[nH]c3ccccc23)NC(=O)[C@H](CC(=O)O)NC(=O)[C@H](Cc2ccc(O)cc2)NC(=O)[C@H](CCC(N)=O)NC(=O)CSC[C@@H](C(=O)N[C@@H](C)C(N)=O)NC(=O)[C@H]([C@@H](C)O)NC(=O)[C@H](C(C)C)NC(=O)[C@H](CC(C)C)NC(=O)[C@H](CCN)NC(=O)[C@@H](CC(C)C)NC(=O)[C@H](C)N(C)C1=O` [Compound 1391] ({CH2CO}-QYDWV[Bip]I[NMeA][dL][Dab]LVTCA-NH2; thioether N-14), the IC50 was 0.03 µM. `CC[C@H](C)[C@@H]1NC(=O)[C@H](Cc2ccc(-c3ccccc3)cc2)NC(=O)[C@H](C(C)C)NC(=O)[C@H](Cc2c[nH]c3ccccc23)NC(=O)[C@H](CC(=O)O)NC(=O)[C@H](Cc2ccc(O)cc2)NC(=O)[C@H](Cc2cccnc2)NC(=O)CSC[C@@H](C(=O)N[C@@H](C)C(N)=O)NC(=O)[C@H]([C@@H](C)O)NC(=O)[C@H](C(C)C)NC(=O)[C@H](CC(C)C)NC(=O)[C@H](CCN)NC(=O)[C@@H](CC(C)C)NC(=O)[C@H](C)N(C)C1=O` [Compound 1401] ({CH2CO}-[3Pal]YDWV[Bip]I[NMeA][dL][Dab]LVTCA-NH2; thioether N-14): the IC50 was 0.01 µM.

For orientation: IC50 means the concentration that inhibits the measured activity by half.
